# Reference: ChEMBL document CHEMBL5537128, “Discovery of LWY713 as a potent and selective FLT3 PROTAC degrader with in vivo activity against acute myeloid leukemia” (Eur J Med Chem, 2024)
# Activity calls are given as the source filed them. No cut-off for these calls is given here.
# Key:
# [1] = molecular target: T1, Protein cereblon/Receptor-type tyrosine-protein kinase FLT3 (Homo sapiens, UniProt P36888+Q96SW2); assay: PROTAC activity at CRBN/FLT3 in human MV4-11 cells harboring FLT3-ITD mutation assessed as induction of FLT3 degradation at 10 nM incubated for 24 hrs by immunoblotting analysis relative to control; assay type: cell-based
# Target sequence in this assay (P36888 27-993 limits assumed): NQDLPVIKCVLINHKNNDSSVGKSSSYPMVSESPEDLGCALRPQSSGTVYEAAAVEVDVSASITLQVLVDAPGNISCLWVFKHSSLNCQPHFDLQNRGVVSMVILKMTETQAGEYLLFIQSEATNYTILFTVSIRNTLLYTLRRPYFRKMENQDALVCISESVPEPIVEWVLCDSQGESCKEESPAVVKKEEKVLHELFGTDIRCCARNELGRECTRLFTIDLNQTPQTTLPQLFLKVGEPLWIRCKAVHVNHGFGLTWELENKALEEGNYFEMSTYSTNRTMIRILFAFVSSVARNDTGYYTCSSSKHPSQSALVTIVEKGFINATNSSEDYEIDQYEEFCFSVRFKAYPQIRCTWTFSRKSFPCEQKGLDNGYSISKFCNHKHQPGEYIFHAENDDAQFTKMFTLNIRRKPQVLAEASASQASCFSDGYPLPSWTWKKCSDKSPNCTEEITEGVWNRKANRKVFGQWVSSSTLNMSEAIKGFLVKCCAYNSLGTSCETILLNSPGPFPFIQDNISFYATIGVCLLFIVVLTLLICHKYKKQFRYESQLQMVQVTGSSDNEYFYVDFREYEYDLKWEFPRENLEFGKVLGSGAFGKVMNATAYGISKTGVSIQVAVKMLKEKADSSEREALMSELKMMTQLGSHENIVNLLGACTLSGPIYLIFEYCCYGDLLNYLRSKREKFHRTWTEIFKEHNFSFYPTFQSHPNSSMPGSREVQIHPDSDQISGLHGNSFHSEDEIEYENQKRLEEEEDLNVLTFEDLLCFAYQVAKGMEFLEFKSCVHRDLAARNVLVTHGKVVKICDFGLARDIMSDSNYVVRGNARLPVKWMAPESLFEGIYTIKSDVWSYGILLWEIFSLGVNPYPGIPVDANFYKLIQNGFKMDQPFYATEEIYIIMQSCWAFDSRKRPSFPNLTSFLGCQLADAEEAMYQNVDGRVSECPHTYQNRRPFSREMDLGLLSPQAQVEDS
# Target sequence in this assay (Q96SW2 whole entry partner): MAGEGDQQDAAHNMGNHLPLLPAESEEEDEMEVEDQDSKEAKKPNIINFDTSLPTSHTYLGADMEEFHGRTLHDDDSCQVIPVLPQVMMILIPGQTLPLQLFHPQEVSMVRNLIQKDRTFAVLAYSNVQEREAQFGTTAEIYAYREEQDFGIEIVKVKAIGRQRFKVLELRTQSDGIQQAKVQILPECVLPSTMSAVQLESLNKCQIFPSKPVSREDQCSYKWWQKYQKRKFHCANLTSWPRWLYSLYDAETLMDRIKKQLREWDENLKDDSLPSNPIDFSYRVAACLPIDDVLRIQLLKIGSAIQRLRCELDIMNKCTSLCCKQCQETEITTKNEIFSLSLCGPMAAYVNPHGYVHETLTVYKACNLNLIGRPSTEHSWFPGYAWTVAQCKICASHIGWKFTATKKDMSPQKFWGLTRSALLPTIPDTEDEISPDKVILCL
# [2] = molecular target: T1, Protein cereblon/Receptor-type tyrosine-protein kinase FLT3; assay: PROTAC activity at CRBN/FLT3 in human MV4-11 cells harboring FLT3-ITD mutation assessed as induction of FLT3 degradation by measuring maximal efficacy incubated for 24 hrs by immunoblotting analysis relative to control; assay type: cell-based
# Target sequence in this assay (P36888 27-993 limits assumed): as the sequence (P36888 27-993 limits assumed) above
# Target sequence in this assay (Q96SW2 whole entry partner): as the sequence (Q96SW2 whole entry partner) above
# [3] = molecular target: T1, Protein cereblon/Receptor-type tyrosine-protein kinase FLT3; assay: PROTAC activity at CRBN/FLT3 in human MV4-11 cells harboring FLT3-ITD mutation assessed as induction of FLT3 degradation incubated for 24 hrs by immunoblotting analysis; assay type: cell-based
# [4] = tested on: MV4-11; assay: Induction of cell cycle arrest at G0/G1 phase in human MV4-11 cells assessed as G2/M phase cells at 0.4 nM incubated for 24 hrs by PI staining based flow cytometric analysis relative to control; assay type: functional
# [5] = tested on: MV4-11; assay: Induction of cell cycle arrest at G0/G1 phase in human MV4-11 cells assessed as G0/G1 phase cells at 2 nM incubated for 24 hrs by PI staining based flow cytometric analysis relative to control; assay type: functional
# [6] = tested on: MV4-11; assay: Induction of cell cycle arrest at G0/G1 phase in human MV4-11 cells assessed as S phase cells at 0.4 nM incubated for 24 hrs by PI staining based flow cytometric analysis relative to control; assay type: functional
# [7] = tested on: MV4-11; assay: Inhibition of PI3K/AKT signaling pathway in human MV4-11 cells assessed as reduction in phosphorylated AKT level at 0.08 to 50 nM incubated for 24 hrs by immunoblotting analysis; assay type: cell-based; details: dose 0.08-50 nM
# [8] = tested on: MV4-11; assay: Induction of apoptosis in human MV4-11 cells assessed as late apoptotic cells at 10 nM incubated for 48 hrs by Annexin V/7-AAD staining based flow cytometric analysis relative to control; assay type: functional
# [9] = tested on: MV4-11; assay: Induction of apoptosis in human MV4-11 cells assessed as early apoptotic cells at 2 nM incubated for 48 hrs by Annexin V/7-AAD staining based flow cytometric analysis relative to control; assay type: functional
# [10] = tested on: MV4-11; assay: Induction of apoptosis in human MV4-11 cells assessed as early apoptotic cells at 10 nM incubated for 48 hrs by Annexin V/7-AAD staining based flow cytometric analysis relative to control; assay type: functional
# [11] = tested on: MV4-11; assay: Induction of cell cycle arrest at G0/G1 phase in human MV4-11 cells assessed as sub-G0/G1 phase cells at 0.4 nM incubated for 24 hrs by PI staining based flow cytometric analysis relative to control; assay type: functional
# [12] = tested on: MV4-11; assay: Induction of apoptosis in human MV4-11 cells assessed as late apoptotic cells at 2 nM incubated for 48 hrs by Annexin V/7-AAD staining based flow cytometric analysis relative to control; assay type: functional
# [13] = tested on: MV4-11; assay: Induction of cell cycle arrest at G0/G1 phase in human MV4-11 cells assessed as G0/G1 phase cells at 0.4 nM incubated for 24 hrs by PI staining based flow cytometric analysis relative to control; assay type: functional
# [14] = tested on: MV4-11; assay: Antiproliferative activity against human MV4-11 cells assessed as inhibition of cell proliferation incubated for 72 hrs by CCK8 assay; assay type: functional, cell-based; details: MV4-11, 72 h
# [15] = tested on: MV4-11; assay: Induction of cell cycle arrest at G0/G1 phase in human MV4-11 cells assessed as G2/M phase cells at 2 nM incubated for 24 hrs by PI staining based flow cytometric analysis relative to control; assay type: functional
# [16] = tested on: MV4-11; assay: Induction of apoptosis in human MV4-11 cells assessed as necrotic cells at 10 nM incubated for 48 hrs by Annexin V/7-AAD staining based flow cytometric analysis relative to control; assay type: functional
# [17] = tested on: MV4-11; assay: Induction of cell cycle arrest at G0/G1 phase in human MV4-11 cells assessed as S phase cells at 2 nM incubated for 24 hrs by PI staining based flow cytometric analysis relative to control; assay type: functional
# [18] = tested on: MV4-11; assay: Induction of cell cycle arrest at G0/G1 phase in human MV4-11 cells assessed as sub-G0/G1 phase cells at 2 nM incubated for 24 hrs by PI staining based flow cytometric analysis relative to control; assay type: functional
# [19] = tested on: MV4-11; assay: Antitumor activity against human MV4-11 cells xenografted in NOD/SCID mouse assessed as reduction in tumor volume at 6 mg/kg, po administered once a day for 21 days; assay type: functional, organism-based; details: time 21.0 day
smiles,measurement,setting,value
CCc1nc(C(N)=O)c(Nc2ccc(N3CCC(N4CCN(C(=O)CCCCCCCNc5ccc6c(c5)C(=O)N(C5CCC(=O)NC5=O)C6=O)CC4)CC3)c(OC)c2)nc1NC1CCOCC1 (configuration not stated),Activity,[1],40%
CCc1nc(C(N)=O)c(Nc2ccc(N3CCC(N4CCN(C(=O)CCCCCNc5cccc6c5C(=O)N(C5CCC(=O)NC5=O)C6=O)CC4)CC3)c(OC)c2)nc1NC1CCOCC1 (configuration not stated),Activity,[1],66%
same,Emax,[2],77.2%
same,DC50,[3],2.26 nM
CCc1nc(C(N)=O)c(Nc2ccc(N3CCC(N4CCN(C(=O)CNc5ccc6c(c5)C(=O)N(C5CCC(=O)NC5=O)C6=O)CC4)CC3)c(OC)c2)nc1NC1CCOCC1 (configuration not stated),Activity,[1],52%
CCc1nc(C(N)=O)c(Nc2ccc(N3CCC(N4CCN(C(=O)COc5cccc6c5C(=O)N(C5CCC(=O)NC5=O)C6=O)CC4)CC3)c(OC)c2)nc1NC1CCOCC1 (configuration not stated),Activity,[1],58%
same,Emax,[2],86.8%
same,DC50,[3],1.26 nM
CCc1nc(C(N)=O)c(Nc2ccc(N3CCC(N4CCN(C(=O)CCCOc5cccc6c5C(=O)N(C5CCC(=O)NC5=O)C6=O)CC4)CC3)c(OC)c2)nc1NC1CCOCC1 (configuration not stated),Activity,[1],30%
CCc1nc(C(N)=O)c(Nc2ccc(N3CCC(N4CCN(C(=O)CCCCCCCOc5cccc6c5C(=O)N(C5CCC(=O)NC5=O)C6=O)CC4)CC3)c(OC)c2)nc1NC1CCOCC1 (configuration not stated),Activity,[1],29%
CCc1nc(C(N)=O)c(Nc2ccc(N3CCC(N4CCN(C(=O)CCCCCCCCCNc5ccc6c(c5)C(=O)N(C5CCC(=O)NC5=O)C6=O)CC4)CC3)c(OC)c2)nc1NC1CCOCC1 (configuration not stated),Activity,[1],0%
CCc1nc(C(N)=O)c(Nc2ccc(N3CCC(N4CCN(C(=O)CCCCCOc5cccc6c5C(=O)N(C5CCC(=O)NC5=O)C6=O)CC4)CC3)c(OC)c2)nc1NC1CCOCC1 (configuration not stated),Activity,[1],36%
CCc1nc(C(N)=O)c(Nc2ccc(N3CCC(N4CCN(C(=O)CCCOc5ccc6c(c5)C(=O)N(C5CCC(=O)NC5=O)C6=O)CC4)CC3)c(OC)c2)nc1NC1CCOCC1 (configuration not stated),Activity,[1],0%
CCc1nc(C(N)=O)c(Nc2ccc(N3CCC(N4CCN(C(=O)CCCCCCCCCOc5cccc6c5C(=O)N(C5CCC(=O)NC5=O)C6=O)CC4)CC3)c(OC)c2)nc1NC1CCOCC1 (configuration not stated),Activity,[1],0%
CCc1nc(C(N)=O)c(Nc2ccc(N3CCC(N4CCN(C(=O)CCCCCCCCCOc5ccc6c(c5)C(=O)N(C5CCC(=O)NC5=O)C6=O)CC4)CC3)c(OC)c2)nc1NC1CCOCC1 (configuration not stated),Activity,[1],0%
CCc1nc(C(N)=O)c(Nc2ccc(N3CCC(N4CCN(C(=O)CCCCCCCCCNc5cccc6c5C(=O)N(C5CCC(=O)NC5=O)C6=O)CC4)CC3)c(OC)c2)nc1NC1CCOCC1 (configuration not stated),Activity,[1],0%
CCc1nc(C(N)=O)c(Nc2ccc(N3CCC(N4CCN(C(=O)CCCCCCCNc5cccc6c5C(=O)N(C5CCC(=O)NC5=O)C6=O)CC4)CC3)c(OC)c2)nc1NC1CCOCC1 (configuration not stated),Activity,[1],50%
CCc1nc(C(N)=O)c(Nc2ccc(N3CCC(N4CCN(C(=O)CNc5cccc6c5C(=O)N(C5CCC(=O)NC5=O)C6=O)CC4)CC3)c(OC)c2)nc1NC1CCOCC1 (configuration not stated),Activity,[1],60%
same,Emax,[2],85%
same,DC50,[3],0.98 nM
CCc1nc(C(N)=O)c(Nc2ccc(N3CCC(N4CCN(C)CC4)CC3)c(OC)c2)nc1NC1CCOCC1 [GILTERITINIB],Activity,[4],21.5%
same,Activity,[5],72.4%
same,Activity,[6],10.4%
same,inhibition,[7],inactive
same,Activity,[8],19.6%
same,Activity,[9],3%
same,Activity,[10],5.5%
same,Activity,[11],1.6%
same,Activity,[12],6.8%
same,Activity,[13],66.3%
same,IC50,[14],6.89 nM
same,Activity,[15],18.5%
same,Activity,[16],2.3%
same,Activity,[17],6.9%
same,Activity,[18],1.9%
same,Activity,[19],Active
CCc1nc(C(N)=O)c(Nc2ccc(N3CCC(N4CCN(C(=O)COc5cccc6c5CN(C5CCC(=O)N(C)C5=O)C6=O)CC4)CC3)c(OC)c2)nc1NC1CCOCC1 (configuration not stated),IC50,[14],22.9 nM
same,DC50,[3],> 1000 nM
CCc1nc(C(N)=O)c(Nc2ccc(N3CCC(N4CCN(c5ccc6c(c5)C(=O)N(C5CCC(=O)NC5=O)C6=O)CC4)CC3)c(OC)c2)nc1NC1CCOCC1 (configuration not stated),Activity,[1],0%
CCc1nc(C(N)=O)c(Nc2ccc(N3CCC(N4CCN(C(=O)CCCCCOc5ccc6c(c5)C(=O)N(C5CCC(=O)NC5=O)C6=O)CC4)CC3)c(OC)c2)nc1NC1CCOCC1 (configuration not stated),Activity,[1],32%
CCc1nc(C(N)=O)c(Nc2ccc(N3CCC(N4CCN(C(=O)COc5ccc6c(c5)C(=O)N(C5CCC(=O)NC5=O)C6=O)CC4)CC3)c(OC)c2)nc1NC1CCOCC1 (configuration not stated),Activity,[1],0%
CCc1nc(C(N)=O)c(Nc2ccc(N3CCC(N4CCN(C(=O)COc5cccc6c5C(=O)N(C5CCC(=O)NC5=O)C6)CC4)CC3)c(OC)c2)nc1NC1CCOCC1 (configuration not stated),DC50,[3],1.01 nM
CCc1nc(C(N)=O)c(Nc2ccc(N3CCC(N4CCN(C(=O)CCCCCCCOc5ccc6c(c5)C(=O)N(C5CCC(=O)NC5=O)C6=O)CC4)CC3)c(OC)c2)nc1NC1CCOCC1 (configuration not stated),Activity,[1],6%
CCc1nc(C(N)=O)c(Nc2ccc(N3CCC(N4CCN(C(=O)CCCCCNc5ccc6c(c5)C(=O)N(C5CCC(=O)NC5=O)C6=O)CC4)CC3)c(OC)c2)nc1NC1CCOCC1 (configuration not stated),Activity,[1],52%
CCc1nc(C(N)=O)c(Nc2ccc(N3CCC(N4CCN(C(=O)CCCNc5ccc6c(c5)C(=O)N(C5CCC(=O)NC5=O)C6=O)CC4)CC3)c(OC)c2)nc1NC1CCOCC1 (configuration not stated),Activity,[1],9%
CCc1nc(C(N)=O)c(Nc2ccc(N3CCC(N4CCN(c5cccc6c5C(=O)N(C5CCC(=O)NC5=O)C6=O)CC4)CC3)c(OC)c2)nc1NC1CCOCC1 (configuration not stated),Activity,[1],0%
CCc1nc(C(N)=O)c(Nc2ccc(N3CCC(N4CCN(C(=O)CCCNc5cccc6c5C(=O)N(C5CCC(=O)NC5=O)C6=O)CC4)CC3)c(OC)c2)nc1NC1CCOCC1 (configuration not stated),Activity,[1],34%
